From patent publication US9149038B2, “4-amino-6-(heterocyclic)picolinates and 6-amino-2-(heterocyclic)pyrimidine-4-carboxylates and their use as herbicides” (Dow AgroSciences LLC, priority 2013, dated 2015)
Like-named read-outs stand apart in the source and are kept apart here.

How the values were obtained:
[1] = test system: Key Broadleaf Weed and Crop Species; experiment: Post-Emergent Test II: postemergent herbicidal activity, visual rating after 14 d (Table 7); format: in vivo; conditions: post-emergence, 336 h; for pest or weed control at 35 g/ha: 35 g ai/ha; for pest or weed control at 70 g/ha: 70 g ai/ha; for pest or weed control at 140 g/ha: 140 g ai/ha
Outline: (§1)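 Greenhouse plants at first or second true leaf stage sprayed with compound in acetone/DMSO-based spray solution with crop oil concentrate and Triton X-155 at 187 L/ha, tested at highest rate and ½× to 1/16× dilutions; solvent blank controls. Injury rated visually 0–100% versus untreated plants after 14 d.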

[2] = test system: Key Grass and Sedge Weeds as well as Grass Crops; experiment: Post-Emergent Test II: postemergent herbicidal activity, visual rating after 14 d (Table 8); format: in vivo; conditions: post-emergence, 336 h; for pest or weed control at 35 g/ha: 35 g ai/ha; for pest or weed control at 70 g/ha: 70 g ai/ha; for pest or weed control at 140 g/ha: 140 g ai/ha
Outline: as §1

[3] = ABUTH: velvetleaf (Abutilon theophrasti), read-out: Visual Growth Reduction (%) 14 Days After Application ABUTH
[4] = AMARE: redroot pigweed (Amaranthus retroflexus), read-out: Visual Growth Reduction (%) 14 Days After Application AMARE
[5] = BRSNN: oilseed rape, canola (Brassica napus), read-out: Visual Growth Reduction (%) 14 Days After Application BRSNN
[6] = CHEAL: lambsquarters (Chenopodium album), read-out: Visual Growth Reduction (%) 14 Days After Application CHEAL
[7] = EPHHL: wild poinsettia (Euphorbia heterophylla), read-out: Visual Growth Reduction (%) 14 Days After Application EPHHL
[8] = HELAN: sunflower (Helianthus annuus), read-out: Visual Growth Reduction (%) 14 Days After Application HELAN
[9] = barnyardgrass (Echinochloa crus-galli), read-out: Visual Growth Reduction (%) 14 Days After Application, ECHCG
[10] = giant foxtail (Setaria faberi), read-out: Visual Growth Reduction (%) 14 Days After Application, SETFA
[11] = maize, corn (Zea mays), read-out: Visual Growth Reduction (%) 14 Days After Application, ZEAMX
[12] = rice (Oryza sativa), read-out: Visual Growth Reduction (%) 14 Days After Application, ORYSA
[13] = wheat, spring (Triticum aestivum), read-out: Visual Growth Reduction (%) 14 Days After Application, TRZAS
[14] = yellow nutsedge (Cyperus esculentus), read-out: Visual Growth Reduction (%) 14 Days After Application, CYPES

In the case of `COC(=O)c1nc(-c2cccc3c2OCO3)nc(N)c1OC` [Compound 98], the pest or weed control at 35 g/ha [1, 3] is reported as 0 to 29%, the pest or weed control at 70 g/ha [1, 3] is reported as 0 to 29% and the pest or weed control at 140 g/ha [1, 3] is reported as 0 to 29%. It also gave a pest or weed control at 35 g/ha [1, 4] of 0 to 29%, a pest or weed control at 70 g/ha [1, 4] of 0 to 29% and a pest or weed control at 140 g/ha [1, 4] of 30 to 44%. For the same molecule, the pest or weed control at 35 g/ha [1, 5] was 0 to 29%, the pest or weed control at 70 g/ha [1, 5] was 0 to 29% and the pest or weed control at 140 g/ha [1, 5] was 0 to 29%. The pest or weed control at 35 g/ha [1, 6] was 45 to 59%, the pest or weed control at 70 g/ha [1, 6] was 60 to 74% and the pest or weed control at 140 g/ha [1, 6] was 60 to 74%. The pest or weed control at 35 g/ha [1, 7] was 0 to 29%, the pest or weed control at 70 g/ha [1, 7] was 0 to 29% and the pest or weed control at 140 g/ha [1, 7] was 0 to 29%. It also gave a pest or weed control at 35 g/ha [1, 8] of 0 to 29%, a pest or weed control at 70 g/ha [1, 8] of 30 to 44% and a pest or weed control at 140 g/ha [1, 8] of 60 to 74%. For the same molecule, the pest or weed control at 35 g/ha [2, 9] was 0 to 29%, the pest or weed control at 70 g/ha [2, 9] was 0 to 29% and the pest or weed control at 140 g/ha [2, 9] was 0 to 29%. It also gave a pest or weed control at 35 g/ha [2, 10] of 0 to 29%, a pest or weed control at 70 g/ha [2, 10] of 0 to 29% and a pest or weed control at 140 g/ha [2, 10] of 0 to 29%. For the same molecule, the pest or weed control at 35 g/ha [2, 11] was 0 to 29%, the pest or weed control at 70 g/ha [2, 11] was 0 to 29% and the pest or weed control at 140 g/ha [2, 11] was 0 to 29%. It also gave a pest or weed control at 35 g/ha [2, 12] of 0 to 29%, a pest or weed control at 70 g/ha [2, 12] of 0 to 29% and a pest or weed control at 140 g/ha [2, 12] of 0 to 29%. The pest or weed control at 35 g/ha [2, 13] was 0 to 29%, the pest or weed control at 70 g/ha [2, 13] was 0 to 29% and the pest or weed control at 140 g/ha [2, 13] was 0 to 29%. For the same molecule, the pest or weed control at 35 g/ha [2, 14] was 0 to 29%, the pest or weed control at 70 g/ha [2, 14] was 0 to 29% and the pest or weed control at 140 g/ha [2, 14] was 0 to 29%.
